This is an account of results in ChEMBL document CHEMBL3507680, “University of Dundee, Gates Library screen for HepG2 cell viability”.

SMILES strings stand for the structures.

The nature of this data set: Human HepG2 cell viability assay in 384 well format. Further details: dose 125 nL, time 70.5 hour; cytotoxicity at 70.5 h: concentration not given beside the values. The conditions noted are these: HepG2 cells, read-out: Inhibition. In kind it is toxicity, cell-based.
Turning to `COc1cc(CNc2cnn(C(C)(C)C)c(=O)c2Cl)ccn1`, the cytotoxicity at 70.5 h was found to be 1.57%.
Regarding `COCCN(C)Cc1cn(C)nc1-c1ccc2c(c1)OCCO2`, the cytotoxicity at 70.5 h is -7.93%.
As for `COCCN1CC2(CCCN(Cc3cc(=O)c(OC)co3)C2)CCC1=O` (stereo unspecified), the cytotoxicity at 70.5 h is -8.24%.
The value for `CC(C)C1SCC(=O)Nc2c1c(O)nn2C1CCCCC1` (stereo unspecified) was -23.1%; that for `CN(C)c1ccc(CNCc2cnc(N3CCOCC3)nc2)cn1` was 2.93%; that for `CCc1nc(N2CCN(Cc3ncccc3C)CC2)c2cnn(C)c2n1` was -4.75%.
On to `COCc1ccc(CNC(=O)CN2CCc3ccccc32)cc1`, for which the cytotoxicity at 70.5 h came out at 1.24%.
For the molecule `O=C(Cc1ccn[nH]1)Nc1cncc(Br)c1O`, the cytotoxicity at 70.5 h is -2.7%.
As to `CNC(=O)c1ccc(C2CN(C(=O)c3c[nH]nc3C)CCO2)nc1` (stereo unspecified), the cytotoxicity at 70.5 h was -1.61%.
The value for `CC(C)CNC(=O)c1sccc1-n1cnnn1` was -7.28%.
The value for `O=c1[nH]c2nc(N3CCCCCC3)ncc2c(=O)n1-c1cccc(F)c1` was -0.0138%.
`CC1CCCN(C(=O)Nc2cccc(CN3CCOC3=O)c2)C1` (stereo unspecified): the cytotoxicity at 70.5 h came to 35.6%.
Regarding `Cc1ccc(NC(=O)Cn2cc(I)cn2)cc1C`, the cytotoxicity at 70.5 h was found to be 20.3%.
Under `Cc1ccc(-c2cc(-c3nc(CN4CCN(C)CC4)no3)[nH]n2)s1` stands -10.5%; under `CCC(C)N1Cc2c(C(=O)N3CCCC3)nn(C)c2C1` (stereo unspecified), -2.34%; under `Cc1c(C(=O)O)cnn1-c1ccc(-c2nc(C(C)C)no2)cn1`, -15.1%.
On to `COc1cc(CNC(=O)c2cc(S(C)(=O)=O)ccc2C)ccn1`, for which the cytotoxicity at 70.5 h was -10.5%.
The value for `O=C(Nc1ccccc1)N1CCC(N2Cc3ncccc3C2=O)CC1` was -8.29%; that for `CN1CCc2onc(CNc3ncccn3)c2C1` was -25.4%.
The value for `COc1ccc(CN2CC[C@H]3CO[C@H](CNC(=O)N(C)C)[C@H]3C2)cc1` was -7.9%.
Under `CC(=O)N1CCOC2(CCN(C(=O)c3cnoc3C)CC2)C1` stands 2.68%; under `CC(O)(CNC(=O)c1cccnc1-n1cccn1)c1ccco1` (stereo unspecified), -4.51%.
As to `CC(C)(C)c1cnc(CNCC2CCCN2c2cccnn2)o1` (stereo unspecified), the cytotoxicity at 70.5 h was determined as 18.8%.
With `Cc1cc(C)n(CC2CCCN2C(=O)CCc2ccncc2)n1` (stereo unspecified), the cytotoxicity at 70.5 h is -6.13%.
With `CC(NCC1(N(C)C)CCOCC1)c1ccc(S(C)(=O)=O)cc1` (stereo unspecified), the cytotoxicity at 70.5 h was -3.6%.
For the molecule `Cc1cccc(N2CCC3(CCN(C(=O)c4cccnc4)CC3)C2)n1`, the cytotoxicity at 70.5 h was 14%.
Consider `O=C(NCCCOc1cccnc1)c1cn(Cc2ccccc2F)nn1`, for which the cytotoxicity at 70.5 h is -12.2%.
The value for `Cc1cc(CNC(=O)C2CC(=O)N(CCN(C)C)C2)cc(C)n1` (stereo unspecified) was 27.5%.
Under `Cc1nn(C)cc1CN(C)C(=O)c1ccccn1` stands 1.81%; under `CCc1nnc2n1CCN(Cc1nc3c(F)cccc3[nH]1)C2`, 11.8%.
Under `C=C(C)COc1ccccc1CNCCc1c[nH]cn1` stands 2.66%.
With `Cc1cnn(CC2CCN(CC(O)c3ccccc3Cl)CC2)c1` (stereo unspecified), the cytotoxicity at 70.5 h was -3.1%.
With `CC(C(=O)N1CCN(c2cnccn2)CC1)n1cncn1` (stereo unspecified), the cytotoxicity at 70.5 h was -4.32%.
Under `CC(C(=O)N(C)C)N1CCc2onc(-c3cccc(F)c3)c2C1` (stereo unspecified) stands -5.12%; under `COCc1cncc2c1CCN(Cc1cccs1)C2`, 0.63%; under `CCC(CC)C(=O)N1CCC2(C1)CN(c1ccccc1)C(=O)CN2C` (stereo unspecified), -20.2%.
Under `CCOc1ccccc1CNC(=O)N1CCC(Cc2cnn(C)c2)C1` (stereo unspecified) stands 7.83%; under `O=C(CCNC(=O)c1ccccc1)Nc1ccncc1`, -18%.
Turning to `Cc1cc2[nH]c(CN3CCCCC3c3cccc(F)c3)cc(=O)n2n1` (stereo unspecified), the cytotoxicity at 70.5 h was -5.96%.
Regarding `Cn1ccnc1CN1CCc2ncnc(N3CCCC3)c2CC1`, the cytotoxicity at 70.5 h is -3.33%.
For the molecule `CC(=O)N1CCN([C@@H]2CN(C(=O)Cc3ccccc3C)C[C@H]2O)CC1`, the cytotoxicity at 70.5 h is -2.44%.
Consider `CCOCCNc1nc(-c2ccncc2)nc2c1CCNCC2`, for which the cytotoxicity at 70.5 h is -4.23%.
Take `Cc1cccc(C2CCCCCN2C(=O)c2cn(CC(N)=O)nn2)c1` (stereo unspecified): the cytotoxicity at 70.5 h is -6.65%.
Under `Cc1nccn1-c1ccc(C(C)NCCC(C)C)cc1` (stereo unspecified) stands -1.85%.
Under `Cn1ncc2c(N3CCC(CCO)CC3)nc(C(C)(C)C)nc21` stands -2.67%.
Regarding `CC(NC(=O)NCCn1ccnc1)c1ccc2c(c1)NC(=O)CO2` (stereo unspecified), the cytotoxicity at 70.5 h was -0.375%.
In the case of `Cc1nc(CN2CCc3ncnc(-c4ccncc4)c3CC2)cs1`, the cytotoxicity at 70.5 h was 20%.
In the case of `CCc1nc(CN2CCN(C(=O)C3(C#N)CCCC3)CC2)cs1`, the cytotoxicity at 70.5 h was -2.5%.
The value for `Cn1nc(COc2cncnc2)c2c1CCN(Cc1ccco1)C2` was 6.82%; that for `c1csc(-c2noc(CCCN3CCCC3Cn3cccn3)n2)c1` (stereo unspecified) was -8.63%.
The value for `Cc1noc(C)c1CN1CCc2c(CNc3nccs3)n[nH]c2C1` was -12.5%; that for `Clc1cnc(NCc2ccccc2N2CCOCC2)nc1` was -14.4%; that for `CSC(C)(C)CNC(=O)NC1CCN(C)CC1` was -3.38%.
As to `Cc1cccc(CN2CC[C@@H]3O[C@@H](C(=O)N4CCN(C)CC4)C[C@@H]32)n1`, the cytotoxicity at 70.5 h was -1.64%.
Consider `Cc1nc(-c2nc(C(=O)N(C)C)c3ccccn23)cn1C(C)C`, for which the cytotoxicity at 70.5 h is -8.88%.
Under `COCCN1C[C@@H](c2ccccc2)[C@@]2(CCN(CC(=O)N(C)C)C2=O)C1` stands -9.6%; under `CC(C)N(C)C(=O)CN1CCCC(c2ccc(C(=O)O)cc2)C1` (stereo unspecified), 32.3%; under `CN(Cc1ccc2nonc2c1)C(=O)c1ccc(C2CCCO2)s1` (stereo unspecified), -4.66%.
Under `CN(C)C(=O)N1CCC2(CC1)CCN(c1ncccn1)C2` stands 2.39%; under `CC(=O)c1cccc(NC(=O)c2cnc(N3CCN(C)CC3)nc2C)c1`, 12.8%; under `O=S1(=O)NC2(CCCN(Cc3ccc(F)cc3)C2)COc2ccccc21` (stereo unspecified), -3.88%.
`Cc1nnc(N2CCN(C)C3(CCC(=O)N(CCO)CC3)C2)s1` (stereo unspecified): the cytotoxicity at 70.5 h turned out to be 22.1%.
The value for `CC[C@@H](C)[C@@H](N)C(=O)Nc1cccc(-c2cnc(N(C)C)nc2)c1` was -4.42%.
The value for `Cc1noc(C)c1CN1Cc2nccn2CC(CN2CCOCC2)C1` (stereo unspecified) was -11.8%; that for `COCC(C)N1CCN(CCc2ccc3c(c2)CCO3)CC1` (stereo unspecified) was 21.8%.
With `NC(=O)COc1ccc(CNCc2cc(F)cc(F)c2)cc1`, the cytotoxicity at 70.5 h is -8.73%.
`Cc1nc(C)n(CC2CCCN2CCOc2ccc(C#N)cc2)n1` (stereo unspecified): the cytotoxicity at 70.5 h came to 6.36%.
As to `Cn1cc(Br)c(=O)c(NS(=O)(=O)c2ccc(Cl)cc2)c1`, the cytotoxicity at 70.5 h is -18.4%.
On to `Cc1ccc(C(=O)NCCCNS(C)(=O)=O)c(=O)[nH]1`, for which the cytotoxicity at 70.5 h is -3.31%.
Under `O=C(c1c[nH]cn1)N1CCCn2c(CN3CCCCC3)nnc2C1` stands -1.43%.
Consider `CN(C)c1nc(NCCCN2CCc3ccccc32)ncc1F`, for which the cytotoxicity at 70.5 h turned out to be 38.5%.
The value for `CCN(C(=O)c1ccccc1I)C1CC(=O)NC1=O` (stereo unspecified) was 4.4%.
With `COCCn1ccc(NCc2sccc2C)n1`, the cytotoxicity at 70.5 h was -3.13%.
Under `CCN(c1ccc(C(=O)NCc2cc[nH]n2)cc1)C(C)C` stands 22.1%.
On to `CC(CC(=O)c1ccco1)NC(=O)c1ccccn1` (stereo unspecified), for which the cytotoxicity at 70.5 h is -10.8%.
For `CCN1CCN(C2CCN(Cc3nnc(C(C)(C)C)o3)CC2)C1=O`, the cytotoxicity at 70.5 h was -11.1%.
Turning to `Cc1cc(CN(C)C(=O)NCc2ccnc(N(C)C)c2)no1`, the cytotoxicity at 70.5 h was -1.17%.
Under `CCCN1CCCC2(CCN(S(=O)(=O)c3cc(C)nn3CC)C2)C1=O` (stereo unspecified) stands -21.6%.
`Cc1cc(C(=O)NC2CCN(c3nnc(C)c(C)c3C#N)CC2)no1`: the cytotoxicity at 70.5 h was -6.5%.
Under `CC(C)CNC(=O)C1=NOC2(CCN(Cc3cccc(C#N)c3)C2)C1` (stereo unspecified) stands -1.8%; under `CC(C)CC(=O)NCCCn1cncn1`, 16.9%; under `O=S(=O)(CC1CCCCO1)Nc1cnn(CC(F)F)c1` (stereo unspecified), -7.78%.
Under `CC(C)c1noc(Cn2ncn3cccc3c2=O)n1` stands -6.57%.
The value for `O=C(c1ccc(NC2CC2)nc1)N1CCCC(n2cccn2)C1` (stereo unspecified) was -4.81%; that for `Cc1occc1C(=O)Nc1ccnc(OC2CCOC2)c1` (stereo unspecified) was -7.45%.
On to `COc1c(C(=O)N2CCC(COCc3ccccc3)C2)c(C)nn1C` (stereo unspecified), for which the cytotoxicity at 70.5 h is -0.0423%.
The value for `Cc1ncc2c(n1)CN(C(C(N)=O)c1ccccc1)CC2` (stereo unspecified) was -7.87%.
The value for `CNC(=O)C1CN(C(C)C)CCN1c1nc(C)cc(C)n1` (stereo unspecified) was -10.7%; that for `CS(=O)(=O)N1CC[C@]2(O)CCN(c3ccnc(N)n3)C[C@@H]2C1` was -0.327%; that for `O=C1COC2(CCN(S(=O)(=O)C3CC3)CC2)CN1c1cccnc1` was 40.1%.
On to `Cc1cnccc1N1CCN(C(=O)CCCN2CCCCC2)CC1`, for which the cytotoxicity at 70.5 h was -3.26%.
As for `c1ccc(-c2nc(CN3CCOC(Cn4cccn4)C3)cs2)cc1` (stereo unspecified), the cytotoxicity at 70.5 h is -2.87%.
Turning to `O=C(CCc1ccsc1)NS(=O)(=O)Cc1ccon1`, the cytotoxicity at 70.5 h is -0.591%.
In the case of `Cn1ccnc1CNCCNc1ncc(Cl)cc1Cl`, the cytotoxicity at 70.5 h is -5.95%.
Under `CC(c1ccncn1)N(C)S(=O)(=O)NCc1ccccc1` (stereo unspecified) stands 47.6%.
In the case of `O=C(c1ncncc1Cl)N1CCN(c2ccc(Cl)cc2)CC1`, the cytotoxicity at 70.5 h is -8.8%.
`COc1cccc(CCC(=O)N2CCC[C@@H](N)[C@@H]2c2ccccc2F)c1`: the cytotoxicity at 70.5 h is -1.81%.
Under `Cc1noc(C)c1CN(C)C(=O)Nc1cnn(CC2CCCO2)c1` (stereo unspecified) stands -16.8%.
In the case of `COCCN(C)C[C@H]1C[C@@H](CO)CN(C(=O)c2ccn(C)c(=O)c2)C1`, the cytotoxicity at 70.5 h is -8.04%.
In the case of `CN(C)c1cc(C2CCCN2)ccn1` (stereo unspecified), the cytotoxicity at 70.5 h stood at 0.143%.
Take `CCC(C)NC(=O)c1ccc(CNC(=O)COC)cc1` (stereo unspecified): the cytotoxicity at 70.5 h was -9.97%.
